Data: patent US11299462B2, “Crystal form of oxopicolinamide derivative and preparation method therefor” (JIANGSU HENGRUI MEDICINE CO., LTD., priority 2018, dated 2022)

Key:
[1] = Study of the stability of the crystal forms (HPLC purity and XRPD crystal form, Day 7); format: physicochemical; settings: for HPLC purity change / XRPD peaks / crystal form stability / crystallinity: 25° C.-60% RH and 40° C.-75% RH; for Purity %: HPLC purity, Day 7, spread flat in the air; for Crystal form: XRPD, Day 7; for chemical stability: conclusion from Table 7
Protocol: Example 13. Study of the Stability of the Crystal Forms
The samples of crystal forms A, B, C, D and F were spread flat in the air to test sample stability under conditions of 4° C., 25° C.-60% relative humidity (RH) and 40° C.-75% relative humidity (RH). The sampling was carried out on Day 7. The HPLC purity and crystal form stability of the samples were studied.
The XRPD spectrums of the samples of crystal forms A, B, C, D and F under conditions of 25° C.-60% RH and 40° C.-75% RH are shown in FIGS. 7 to 16.
It can be seen that the stability of crystal forms B and F is better than that of crystal forms A, C and D.

human blood = experiment: In vitro anticoagulant effect on human blood (APTT detection in plasma); format: biochemical
Protocol: Test Example 2: Determination of In Vitro Anticoagulant Effect of the Compound of the Present Invention on Human Blood
1. Experimental Materials
Plasma: human blood was collected in blood collection tubes free of anticoagulant, and then 3.8% sodium citrate (volume ratio 1:9) was added. The tubes were centrifuged at 2500 rpm for 10 minutes at room temperature, and then the plasma was collected and stored at −80° C.;
Reagents: APTT reagent (Activated partial thromboplastin time assay kit, SIEMENS, No. B4218-1), calcium chloride solution;
Instrument: coagulation instrument (SYSMEX, CA-500).
The separated plasma was melted at room temperature and mixed well. 10000 μM of test compound dissolved in 100% DMSO was diluted to 3000, 300, 200, 150, 75, 30, 10, 3, 0.3 μM with 100% DMSO, and the blank was 100% DMSO. The reagent, plasma, and compounds were placed in corresponding positions in the coagulation instrument, and APTT detection of the compound was carried out.
Curve fitting was carried out by Prism, and CT2 (i.e., the concentration of the compound corresponding to 2 times the APTT of the blank control) was calculated. CT2=2.0.

| Compound | HPLC purity change ([1]; 4° C.) | XRPD peaks ([1]; 4° C.) | crystal form stability ([1]; 4° C.) | Purity % ([1]; 4° C.) | Purity % ([1]; 25° C. 60% RH) | Purity % ([1]; 40° C. 75% RH) | Crystal form ([1]; 4° C.) | Crystal form ([1]; 25° C. 60% RH) | Crystal form ([1]; 40° C. 75% RH) | chemical stability [1] | CT2 (concentration of the compound corresponding to 2 times the APTT of the blank control) (human blood) | XRPD ([1]; 40° C.-75% RH) | XRPD peaks [1] | crystallinity [1] |
| --- | --- | --- | --- | --- | --- | --- | --- | --- | --- | --- | --- | --- | --- | --- |
| COc1cn([C@@H](Cc2ccccc2)C(=O)Nc2ccc(C(=O)O)cc2)c(=O)cc1-c1cc(Cl)ccc1C(C)=O [Crystal form B, (S)-4-(2-(4-(2-Acetyl-5-chlorophenyl)-5-methoxy-2-oxopyridin-1(2H)-yl)-3-phenylpropanamido)benzoic acid] | changed slightly | have not changed | stable | 99.13% | 99.14% | 99.13% | Same | Same | Same | good |  |  |  |  |
| COc1cn([C@@H](Cc2ccccc2)C(=O)Nc2ccc(C(=O)O)cc2)c(=O)cc1-c1cc(Cl)ccc1C(C)=O [compound of formula (I), (S)-4-(2-(4-(2-acetyl-5-chlorophenyl)-5-methoxy-2-oxopyridin-1(2H)-yl)-3-phenylpropanamido) benzoic acid] |  |  |  |  |  |  |  |  |  |  | 2.0 |  |  |  |
| COc1cn([C@@H](Cc2ccccc2)C(=O)Nc2ccc(C(=O)O)cc2)c(=O)cc1-c1cc(Cl)ccc1C(C)=O [Crystal form C, (S)-4-(2-(4-(2-Acetyl-5-chlorophenyl)-5-methoxy-2-oxopyridin-1(2H)-yl)-3-phenylpropanamido)benzoic acid] |  |  |  | 99.28% | 99.29% | 99.31% | Same | Same | Different | good |  | has also changed |  |  |
| COc1cn([C@@H](Cc2ccccc2)C(=O)Nc2ccc(C(=O)O)cc2)c(=O)cc1-c1cc(Cl)ccc1C(C)=O [Crystal form F, (S)-4-(2-(4-(2-Acetyl-5-chlorophenyl)-5-methoxy-2-oxopyridin-1(2H)-yl)-3-phenylpropanamido)benzoic acid] | changed slightly | have not changed | stable | 99.17% | 99.33% | 99.21% | Same | Same | Same | good |  |  |  |  |
| COc1cn([C@@H](Cc2ccccc2)C(=O)Nc2ccc(C(=O)O)cc2)c(=O)cc1-c1cc(Cl)ccc1C(C)=O [Crystal form D, (S)-4-(2-(4-(2-acetyl-5-chlorophenyl)-5-methoxy-2-oxopyridin-1(2H)-yl)-3-phenylpropanamido)benzoic acid] |  |  |  | 98.4% | 98.15% | 98.33% | Same | Different | Different | good |  |  | have changed with the loss of some peak characters | has decreased |
| COc1cn([C@@H](Cc2ccccc2)C(=O)Nc2ccc(C(=O)O)cc2)c(=O)cc1-c1cc(Cl)ccc1C(C)=O [Crystal form A, (S)-4-(2-(4-(2-Acetyl-5-chlorophenyl)-5-methoxy-2-oxopyridin-1(2H)-yl)-3-phenylpropanamido)benzoic acid] |  |  |  | 98.94% | 98.99% | 99.01% | Same | Different | Different | good |  |  | have changed with the loss of some peak characters | has decreased |
